From PMC10693969 (Parasites, Hosts and Diseases, 2023)
Like-named read-outs stand apart in the source and are kept apart here.

What was measured:
[1] = system: murine macrophages J774A.1; conditions: cited from earlier work
[2] = system: C6 rat glial cells (ATCC CCL-107); assay: Cytotoxicity against C6 glial cells; format: cell-based; conditions: C6 glial cells
[3] = Cytotoxicity against C6 glial cells; format: cell-based, rat; conditions: rat, C6 glial cells
[4] = system: Naegleria fowleri trophozoites (Carter NF69 strain, ATCC 30215); assay: In vitro anti-N. fowleri activity, trophozoite viability; format: cell-based; conditions: for SI, sensitivity index (CC50 C6 glial cells / IC50 N. fowleri): ratio CC50 C6 glial cells / IC50 N. fowleri; for antiamoebic activity against N. fowleri (in words): in vitro
[5] = system: A. castellanii (ATCC-30868) trophozoites; assay: In vitro anti-Acanthamoeba activity, A. castellanii trophozoite viability; format: cell-based; conditions: for SI, sensitivity index (CC50 C6 glial cells / IC50 A. castellanii): ratio CC50 C6 glial cells / IC50 A. castellanii
[6] = system: A. polyphaga (ATCC-30461) trophozoites; assay: In vitro anti-Acanthamoeba activity, A. polyphaga trophozoite viability; format: cell-based; conditions: for SI, sensitivity index (CC50 C6 glial cells / IC50 A. polyphaga): ratio CC50 C6 glial cells / IC50 A. polyphaga
[7] = system: A. castellanii trophozoites; conditions: cited from earlier work
[8] = Naegleria fowleri, ATCC30215, 48 h, read-out: N. fowleri (IC50 ±SD, μM), trophozoites, 0–400 μM, 37°C, 48 h, mean±SD of 3 independent experiments
[9] = Acanthamoeba castellanii, ATCC30868, 48 h, read-out: A. castellanii (IC50 ±SD, μM), trophozoites, 0–400 μM, 25°C, 48 h, mean±SD of 3 independent experiments
[10] = read-out: A. castellanii (IC50 ±SD), trophozoites, 0–400 μM, 25°C, 48 h, mean±SD of 3 independent experiments
[11] = Acanthamoeba polyphaga, ATCC30461, 48 h, read-out: A. polyphaga (IC50 ±SD, μM), trophozoites, 0–400 μM, 25°C, 48 h, mean±SD of 3 independent experiments
[12] = read-out: A. polyphaga (IC50 ±SD), trophozoites, 0–400 μM, 25°C, 48 h, mean±SD of 3 independent experiments

For O=c1cc(-c2ccc(O)cc2)oc2cc(O)cc(O)c12 [Apigenin, apigenin], the “cytotoxicity against murine macrophages J774A.1 (in words)” value [1] is given as “potential cytotoxicity”, the “cytotoxicity to C6 glial cells (in words)” value [2] is given as “did not show significative cytotoxicity” and the CC50 [3] is given as 243.1 ± 0.98 µM. The IC50 [4, 8] was 94.65 ± 0.58 µM, the “SI, sensitivity index (CC50 C6 glial cells / IC50 N. fowleri)” value [4] was 2.57 and the “antiamoebic activity against N. fowleri (in words)” value ([4]; trophozoites) was “did not show significative anti-N. fowleri activities”. For the same compound, the IC50 [5, 9] was under 50 µM, the “SI, sensitivity index (CC50 C6 glial cells / IC50 A. castellanii)” value [5] was 5.60 and the IC50 [5, 10] was 43.4 ± 0.8 µM. The IC50 [6, 11] was under 50 µM, the “SI, sensitivity index (CC50 C6 glial cells / IC50 A. polyphaga)” value [6] was 8.58 and the IC50 [6, 12] was 28.33 ± 0.13 µM.
In the case of COc1ccc2c(c[n+](C)c3c4cc5c(cc4ccc23)OCO5)c1OC [Chelerythrine, chelerythrine chloride], the “cytotoxicity to C6 glial cells (in words)” value [2] is reported as “potent cytotoxicity”, the “cytotoxicity to C6 glial cells (in words)” value ([2]; listed as chelerythrine) is reported as “strong toxicity” and the CC50 [3] is reported as 16.4 ± 0.45 µM. For the same compound, the IC50 ([4]; Naegleria fowleri, ATCC30215, 48 h, read-out: N. fowleri (IC50 ±SD, μM)) was 11.8 ± 1.15 µM, the “SI, sensitivity index (CC50 C6 glial cells / IC50 N. fowleri)” value [4] was 1.39 and the “antiamoebic activity against N. fowleri (in words)” value ([4]; trophozoites) was “strong antiamoebic activity”. The IC50 ([5]; Acanthamoeba castellanii, ATCC30868, 48 h, read-out: A. castellanii (IC50 ±SD, μM)) was 148.1 ± 1.38 µM, the “antiamoebic activity against A. castellanii (in words)” value ([5]; trophozoites, in vitro) was “did not exhibit potential or selective antiamoebic activity” and the IC50 ([6]; Acanthamoeba polyphaga, ATCC30461, 48 h, read-out: A. polyphaga (IC50 ±SD, μM)) was 102 ± 1.4 µM. The “antiamoebic activity against A. polyphaga (in words)” value ([6]; trophozoites, in vitro) was “did not exhibit potential or selective antiamoebic activity”.
For COc1cc(/C=C/C(O)=C/C(=O)/C=C/c2ccc(O)cc2)ccc1O [Demethoxycurcumin, demethoxycurcumin], the CC50 [3] was over 296 µM, the IC50 [4, 8] was under 30 µM and the “SI, sensitivity index (CC50 C6 glial cells / IC50 N. fowleri)” value [4] was over 7. For the same compound, the “SI, sensitivity index (CC50 C6 glial cells / IC50 N. fowleri)” value ([4]; listed as demethoxycurcumin) was over 8, the IC50 ([4]; read-out: N. fowleri (IC50 ±SD), trophozoites, 0–400 μM, 37°C, 48 h, mean±SD of 3 independent experiments) was 27.1 ± 0.35 µM and the IC50 ([4]; read-out: N. fowleri (IC50 ±SD), trophozoites, 0–400 μM, 37°C, 48 h, mean±SD of 3 independent experiments, listed as demethoxycurcumin) was under 40 µM. The IC50 [5, 9] was under 50 µM, the “SI, sensitivity index (CC50 C6 glial cells / IC50 A. castellanii)” value [5] was over 8.19 and the “SI, sensitivity index (CC50 C6 glial cells / IC50 A. castellanii)” value ([5]; listed as demethoxycurcumin) was over 8. For the same compound, the IC50 [5, 10] was 36.1 ± 0.82 µM, the IC50 ([5]; read-out: A. castellanii (IC50 ±SD), trophozoites, 0–400 μM, 25°C, 48 h, mean±SD of 3 independent experiments, listed as demethoxycurcumin) was under 40 µM and the “toxicity to A. castellanii trophozoites (in words)” value [7] was “toxic”. For the same compound, the “SI, sensitivity index (CC50 C6 glial cells / IC50 A. polyphaga)” value [6] was over 13.48, the “SI, sensitivity index (CC50 C6 glial cells / IC50 A. polyphaga)” value ([6]; listed as demethoxycurcumin) was over 8 and the IC50 [6, 12] was 21.93 ± 0.18 µM. It also gave an IC50 ([6]; read-out: A. polyphaga (IC50 ±SD), trophozoites, 0–400 μM, 25°C, 48 h, mean±SD of 3 independent experiments, listed as demethoxycurcumin) of under 40 µM.
With Oc1ccc(/C=C/c2cc(O)cc(O)c2)cc1 [Resveratrol, resveratrol] the CC50 [3] was 220.78 ± 0.09 µM, the IC50 [4, 8] was 47.19 ± 0.36 µM and the “SI, sensitivity index (CC50 C6 glial cells / IC50 N. fowleri)” value [4] was 4.68. The IC50 [5, 9] was under 50 µM, the “SI, sensitivity index (CC50 C6 glial cells / IC50 A. castellanii)” value [5] was 5.52 and the IC50 [5, 10] was 40.03 ± 0.39 µM. The “toxicity to A. castellanii trophozoites (in words)” value [7] was “toxic”, the IC50 [6, 11] was under 50 µM and the “SI, sensitivity index (CC50 C6 glial cells / IC50 A. polyphaga)” value [6] was 7.04. For the same compound, the IC50 [6, 12] was 31.35 ± 0.08 µM.
